# Test results published in patent US12357636B2 (Urovant Sciences GmbH, priority 2018, dated 2025).
# Read-outs that look alike come from different tables or passages of the source.
# Legend:
# β2-AR = β2-AR (Homo sapiens, UniProt P07550); test: competition binding assay, membranes with recombinant β2-AR
# [1] = human plasma protein binding; type: in vitro ADME
# [2] = single rising oral dose Phase 1 pharmacokinetics; type: in vivo, human
# Experimental: The steady state AUC geometric mean accumulation ratios were ˜2 in young male subjects and ˜2.8 in elderly subjects (male and female).
# All subjects were healthy adults. […] Systemic exposures were greater than dose proportional up to 600 mg.
# Although exposures were similar in middle-aged males when compared to young males, plasma concentrations were higher in elderly compared to middle-aged and young subjects. […] Furthermore, the steady state AUC geometric mean accumulation ratios were ˜2 in young males and ˜2.8 in the elderly.
# [3] = multiple rising dose Phase 1 pharmacokinetics; type: in vivo, human
# Excerpt: Although exposures were similar in middle-aged males when compared to young males, plasma concentrations were higher in elderly compared to middle-aged and young subjects.
# [4] = PK in renal impairment, single dose 100 mg; type: in vivo, human; details: for CL/F / Fe[urine] 48 hr / AUC0-inf: single 100 mg
# Excerpt: The relationship between clearance and renal function was modeled using linear regression.
# [5] = PK in moderate hepatic impairment, single dose 100 mg; type: in vivo, human; details: single 100 mg, healthy matched control subjects
# [6] = drug interaction: effect of ketoconazole, diltiazem or tolterodine on vibegron PK; type: in vivo, human
# Excerpt: However, these interactions are not expected to be clinically significant.
# [7] = system: patients with overactive bladder
# Excerpt: A placebo group was included in the main study, and a group that received tolterodine monotherapy was included in the main study and in the extension.
# healthy volunteers = test: thorough QT study: RR interval and blood pressure (Table 19); type: in vivo, human
# CYP3A4 = CYP3A4 (Homo sapiens, UniProt P08684); test: in vitro CYP metabolism; type: in vitro ADME
# Sequence of CYP3A4 (P08684 whole entry): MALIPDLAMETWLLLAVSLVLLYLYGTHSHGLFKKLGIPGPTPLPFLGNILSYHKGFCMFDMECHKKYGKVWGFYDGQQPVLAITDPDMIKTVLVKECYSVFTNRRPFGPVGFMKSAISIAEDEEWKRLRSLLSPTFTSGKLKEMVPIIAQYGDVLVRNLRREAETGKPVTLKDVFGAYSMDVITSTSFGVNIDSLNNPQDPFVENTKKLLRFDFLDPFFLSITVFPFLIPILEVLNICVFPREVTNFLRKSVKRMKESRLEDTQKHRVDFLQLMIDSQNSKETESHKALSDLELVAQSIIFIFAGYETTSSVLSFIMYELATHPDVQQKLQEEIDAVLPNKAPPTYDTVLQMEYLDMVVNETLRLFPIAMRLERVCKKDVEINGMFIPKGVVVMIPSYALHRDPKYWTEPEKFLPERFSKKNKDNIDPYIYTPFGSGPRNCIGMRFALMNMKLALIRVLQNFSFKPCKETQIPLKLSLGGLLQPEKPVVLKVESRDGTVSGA
# [8] = system: men and women with overactive bladder; test: Phase 3 study vibegron 75 mg vs placebo and tolterodine, 12 weeks, OAB: efficacy (Tables 21-25); type: in vivo, human
# Experimental: Enrollment of patients included individuals with OAB Wet (those with UUI, the involuntary loss of urine accompanied by urgency) and OAB Dry (those without UUI). A total of 1,518 patients were randomized across 215 study sites into one of three groups for a 12-week treatment period.
# The study consisted of a Screening Period (1 to 5 weeks), a single-blind Run-in Period (2 weeks), a randomized double-blind Treatment Period (12 weeks), and a Follow-up Period (4 weeks).
# Tolterodine ER 4 mg was the active control. […] Between the Baseline and Week 12 Visits, patients had study assessments at Week 4 and Week 8.
# For the analysis of the co-primary endpoints (change from baseline in average number of daily micturitions at Week 12 and change from baseline in average number of daily urge urinary incontinence episodes at Week 12, and placebo adjustment of each), a mixed model for repeated measure (MMRM) with restricted maximum likelihood estimation was used. This model corrects for dropout and accounts for the fact that measurements taken on the same patient over time tend to be correlated by using all available information on patients within the same covariate set to derive an estimate of the treatment effect for a dropout-free population. The analysis model for each efficacy endpoint includes terms for treatment, visit, OAB Type (Wet vs Dry), Sex (Female vs Male), Region (US vs Rest of World), baseline score, and interaction of visit by treatment.
# Primary inferences were drawn from treatment differences for the changes from baseline derived from the MMRM models at Week 12. As part of secondary objectives, the treatment differences for each post baseline visit were also derived using the same MMRM model.
# An unstructured covariance matrix was used to model the correlation among repeated measurements. The Kenward-Roger adjustment was used with restricted (or residual) maximum likelihood (REML) to make statistical inference. If the unstructured covariance model fails to converge with the default Newton-Raphson algorithm, the Fisher scoring algorithm or other appropriate methods can be used to provide initial values of the covariance parameters. In the rare event that none of the above methods yield convergence, a structured covariance would be used to model the correlation among repeated measurements.
# The change from baseline efficacy endpoints was analyzed using the same MMRM model described for co-primary endpoints.
# Analysis of the efficacy endpoints of proportion of patients with at least 75% reduction in the average number of daily UUI episodes at Week 12 and proportion of patients with 50% reduction in the average number of daily urgency episodes at Week 12 was analyzed using the Cochran-Mantel-Haenszel risk difference estimate. Missing Week 12 data was analyzed using multiple imputation. The estimated difference in the proportion of responders and 95% confidence interval for the difference was calculated using the Cochran-Mantel-Haenszel risk difference estimate stratified by OAB Type (Wet vs Dry) and Sex (Female vs Male), with weights proposed by Greenland and Robins.
# The same statistical methods that were used to analyze the co-primary and secondary efficacy endpoints were used for the exploratory analyses. Exploratory responder analyses were analyzed using the same Cochran-Mantel-Haenszel model as described above for secondary endpoints.
# [9] = healthy matched control subjects
# [10] = multiple doses of 240 mg or 180 mg diltiazem, vibegron 100 mg
# Excerpt for healthy subjects: Safety data from 16 Phase 1 studies, which include 15 completed Phase 1 studies and 1 study that was terminated early (this study was terminated for reasons unrelated to efficacy or safety) was collected.
# Sequence of β2-AR (P07550 whole entry): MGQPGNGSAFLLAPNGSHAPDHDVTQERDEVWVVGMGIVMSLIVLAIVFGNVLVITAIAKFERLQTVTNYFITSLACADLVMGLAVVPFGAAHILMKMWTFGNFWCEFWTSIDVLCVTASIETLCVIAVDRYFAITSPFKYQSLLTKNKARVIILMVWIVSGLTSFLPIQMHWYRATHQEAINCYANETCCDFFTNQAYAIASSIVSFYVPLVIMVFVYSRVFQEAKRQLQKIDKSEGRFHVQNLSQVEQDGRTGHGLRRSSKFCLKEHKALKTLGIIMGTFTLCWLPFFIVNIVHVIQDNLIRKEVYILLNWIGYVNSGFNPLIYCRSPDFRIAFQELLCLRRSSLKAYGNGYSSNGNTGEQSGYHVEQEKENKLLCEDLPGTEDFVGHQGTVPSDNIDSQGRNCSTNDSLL
compound,measurement,setting,value
"O=C(Nc1ccc(C[C@@H]2CC[C@H]([C@H](O)c3ccccc3)N2)cc1)[C@@H]1CCc2nccc(=O)n21 [Vibegron, (6S)—N-[4-[[(2S,5R)-5-[(R)-hydroxy(phenyl)methyl]pyrrolidin-2-yl]methyl]phenyl]-4-oxo-7,8-dihydro-6H-pyrrolo[1,2-a]pyrimidine-6-carboxamide]",binding to β2-AR,β2-AR,does not bind
same,bound to human plasma proteins,[1],approximately 49%
same,"exposure increase, young Japanese vs non-Japanese males",[2]; single dose,< 2 fold
same,dose proportionality of mean Cmax and AUC,[2]; up to 400 mg,greater than dose-proportional
same,"steady state Cmax, elderly compared to young males",[3]; 100 mg QD,~1.3 fold
same,"fe0-24hr, ss","[3]; 100 mg, elderly subjects",~17%
same,AUC0-24,"[3]; 200 mg multiple dose, day 14, healthy young males",3200 ± 1120 ng·h/mL
same,"fe0-24hr, ss","[3]; 100 and 150 mg, young males",~14%
same,steady state exposure (AUC0-24) higher in elderly Japanese than elderly non-Japanese,[3]; Day 14,35%
same,Cmax increase in elderly Japanese compared to elderly non-Japanese,[3]; in vivo,82%
same,higher Cmax in elderly and females than healthy young males,[3]; in vivo,50-70%
same,"steady state AUC, middle-aged females compared to middle-aged males",[3]; in vivo,~1.5 fold
same,steady state exposures higher in Japanese than non-Japanese young males,[3]; in vivo,~30%
same,time to steady state,[3]; once daily dosing,≤ 7 days
same,exposure (AUC) higher in females compared with males,[3]; regardless of age,50%
same,"mean increase in AUC, moderate renal impairment vs normal renal function",[4]; in vivo,1.6 fold
same,AUC0-inf higher compared to healthy matched controls,[4]; mild renal impairment,49%
same,CLR reduced compared to healthy matched controls,[4]; mild renal impairment,39%
same,Cmax higher compared to healthy matched controls,[4]; mild renal impairment,96%
same,AUC0-inf higher compared to healthy matched controls,[4]; moderate renal impairment,106%
same,CLR reduced compared to healthy matched controls,[4]; moderate renal impairment,65%
same,Cmax higher compared to healthy matched controls,[4]; moderate renal impairment,68%
same,AUC0-inf higher compared to healthy matched controls,[4]; severe renal impairment,83%
same,CLR reduced compared to healthy matched controls,[4]; severe renal impairment,82%
same,Cmax higher compared to healthy matched controls,[4]; severe renal impairment,42%
same,CL/F,[4]; [9],64.9 L/h
same,Fe[urine] 48 hr,[4]; [9],7.9%
same,AUC0-inf,[4]; mild renal impairment,2290 ng·h/mL
same,CL/F,[4]; mild renal impairment,43.6 L/h
same,Fe[urine] 48 hr,[4]; mild renal impairment,8.5%
same,CL/F,[4]; moderate renal impairment,31.5 L/h
same,Fe[urine] 48 hr,[4]; moderate renal impairment,5.5%
same,AUC0-inf,[4]; severe renal impairment,2820 ng·h/mL
same,CL/F,[4]; severe renal impairment,35.5 L/h
same,Fe[urine] 48 hr,[4]; severe renal impairment,2.1%
same,CL/F increase per one mL/min/1.73 m2 increase in eGFR,[4]; slope of linear regression,~0.8%
same,Apparent terminal t1/2,[5],92.5 (9.37%) hr
same,effect of tolterodine ER 4 mg on the pharmacokinetics of vibegron,[6]; in vivo,no effect
same,GM AUC0-inf increase with diltiazem,[6]; [10],63%
same,GM Cmax increase with diltiazem,[6]; [10],68%
same,Accidental overdose,[7]; 3 mg QD,3 (2.1) n (%)
same,Accidental overdose,[7]; 15 mg QD,6 (4.5) n (%)
same,Accidental overdose,[7]; 50 mg QD,4 (2.7) n (%)
same,Accidental overdose,[7]; 100 mg QD,11 (4.2) n (%)
same,≥1 AE,[7]; 100 mg QD,107 (41.0) n (%)
same,frequency of injuries,"[7]; human, in vivo",0.9%
same,Maximum Mean Placebo Corrected Change from Baseline Diastolic BP (90% CI),healthy volunteers; single dose 200 mg,2.42 mmHg
same,Maximum Mean Placebo Corrected Change from Baseline RR interval (90% CI),healthy volunteers; single dose 200 mg,-84.36 ms
same,Maximum Mean Placebo Corrected Change from Baseline Systolic BP (90% CI),healthy volunteers; single dose 200 mg,2.20 mmHg
same,Maximum Mean Placebo Corrected Change from Baseline Diastolic BP (90% CI),healthy volunteers; single dose 400 mg,3.99 mmHg
same,Maximum Mean Placebo Corrected Change from Baseline RR interval (90% CI),healthy volunteers; single dose 400 mg,-162.45 ms
same,Maximum Mean Placebo Corrected Change from Baseline Systolic BP (90% CI),healthy volunteers; single dose 400 mg,3.97 mmHg
same,predominant CYP responsible for in vitro metabolism,CYP3A4,CYP3A4
same,total incontinence episodes vs baseline,"[8]; 75 mg QD, 12 weeks",reduced by half
same,Micturitions: Week 12 CFB Mean,"[8]; Males with BPH, descriptive statistics",−1.50
same,"OAB-q Coping Score, Week 12 LS Mean Change from Baseline (Placebo-Adjusted)","[8]; Week 12, key secondary endpoint, once-daily vibegron 75 mg or tolterodine",3.6
same,treatment-emergent SAEs or deaths,healthy subjects; Phase 1 program,no treatment-emergent serious adverse events (SAEs) or deaths reported
same,tolerability across the Phase 1 program,"healthy subjects; single 2 to 600 mg, multiple 25 to 400 mg up to 28 days",generally well tolerated
